From patent US20060258716A1, “Methods and compositions for the treatment of helicobacter pylori-associated diseases using endoperoxide bridge-containing compounds” (priority 2003, published 2006)
Values after ≈ are worked out from the molar mass of the structure shown.

Assays:
ulcerative lesion index = details: lesions produced by ethanol and indomethacin in rats; cited from earlier work
[1] = tested on: E. coli strains defective in DNA-gyrase enzyme; details: cited from earlier work
[2] = tested on: wild type of E. coli having intact DNA gyrase genes; details: cited from earlier work
H. pylori [3] = test: Growth inhibition of H. pylori (MIC), growth monitored by spectrophotometer; format: cell-based; details: for minimal inhibitory concentration (MIC): Example 4, FIG. 4
Protocol: (§1) To test the effect of artemisinin on the growth of H. pylori, freshly prepared bacteria were exposed to various concentrations of artemisinin. Bacteria were grown for fixed incubation times and their growth levels were monitored using a spectrophotometer. The growth of treated bacteria was compared to that of non-treated bacteria.
as §1, with “effectivity” for “effect”, “artemisinin derivatives” for “artemisinin”, “artemisinin derivatives.” for “artemisinin.”

H. pylori [4] = test: Timed artesunate exposure and wash-out, regrowth of H. pylori cultures; format: cell-based; details: 0.625 or 6.25 mM, exposure 0.5-18 hours, then 36 hours artesunate-free medium, FIG. 5
Protocol: Artesunate (0.625 or 6.25 mM) was added to bacterial cultures (0.2 O.D.600) for various time points (0.5, 1, 2, 4, 6, and 18 hours). Artesunate was then washed out from the cultures by precipitation of the bacteria and washing in PBS, after which bacteria were re-suspended in a fresh artesunate-free medium. Bacteria were maintained in artesunate-free medium for additional 36 hours and bacterial growth was then determined by spectrophotometer.

H. pylori [5] = test: Anti-Helicobacter activity of artesunate after pre-incubation in simulated gastric fluid; format: cell-based; details: 1 mg/ml pre-incubated in SGF pH 1.2 at 37° C. up to 24 h, cultures then exposed 36 h, FIG. 6
Protocol: Artesunate (1 mg/ml) was pre-incubated in simulated gastric fluid (SGF, pH 1.2) or in bacterial broth medium (BBM, natural pH) at 37° C. for various time periods (1, 2, 4, 6, and 24 hours). After the pre-incubation, bacterial cultures (0.01 O.D) were exposed for 36 h to culture medium containing the pre-incubated artesunate. The effect of artesunate on bacterial growth was then determined by spectrophotometer.

[6] = tested on: H. pylori bacterial strain SS1; test: H. pylori-infected mice, colony forming units from homogenized stomach; format: in vivo; details: oral 50 mg/kg 3 times/day for 8 days, day 4 and 8, versus placebo, FIG. 7
Protocol: The effect of artesunate against H. pylori infection in vivo was tested in H. pylori-infected mice. Mice were infected by inoculation (×3/day) with suspension of 10^9 H. pylori bacterial strain SS1. Two weeks following the infection, mice were treated orally with 50 mg/kg artesunate 3 times/day for 8 days. The level of bacterial infection was determined by counting the number of colony forming units derived from the homogenized stomach on day 4 and 8 of the treatment.

H. pylori [7] = test: Minimal bactericidal concentration: treated H. pylori plated on solid medium, colonies counted; format: cell-based; details: no colony-forming units on solid medium
Protocol: To further determine the antibacterial effect of artemisinin, H. pylori maintained in the presence of various concentrations of artemisinin were plated on solid medium and the number of single colonies was monitored.

E. coli = test: MBC against E. coli; format: cell-based
Protocol: (§2) To determine whether the effect of artemisinin is specific to H. pylori, the ability of artemisinin to inhibit the growth of E. coli and P. acnes was tested. In contrary to H. pylori, which is a microaerophilic bacterium, E. coli is an aerobic intestinal bacterium, and P. acnes is an anaerobic dermal bacterium. These bacteria were exposed to various concentrations of artemisinin, and MIC and MBC values were determined.

P. acnes = test: MBC against P. acnes; format: cell-based
Protocol: as §2

[8] = tested on: Lactobacillus acidophilus; test: MIC / growth of Lactobacillus acidophilus; format: cell-based
Protocol: (§3) The effect of artemisinin on the growth and viability of Lactobacillus acidophilus (L. acidophilus) that is part of the normal flora of the intestine was examined. L. acidophilus bacteria were grown with various concentration of artemisinin and its effect was determined.

[9] = tested on: Lactobacillus acidophilus; test: MBC against Lactobacillus acidophilus; format: cell-based; details: L. acidophilus
Protocol: as §3

[10] = tested on: H. pylori exhibiting resistance to clarithromycin (CLR) and metronoidazole; test: Growth of clarithromycin- and metronidazole-resistant H. pylori strains; format: cell-based; details: 2.5-10 μM artemisinin, 3 days, micro-aerophilic conditions, FIG. 2
Protocol: Unsuccessful therapy in patients infected with H. pylori is frequently correlated to clarithromycin and metronidazole resistance. […] Bacterial cultures were incubated in micro-aerophilic conditions. The effect of clarithromycin or artemisinin on bacterial growth was tested using a spectrophotometer after 3 days.

H. pylori [11] = test: Combined effect of artemisinin and omeprazole on H. pylori growth; format: cell-based; details: 0.5 μg/ml artemisinin alone, 3 days
Protocol: In order to explore the possible synergism between artemisinin and a PPI, the growth of bacteria in the presence of artemisinin, omeprazole or both was examined. H. pylori bacteria were grown in the presence of 3-24 μg/ml omeprazole or 0.5-4 μg/ml of artemisinin. Bacterial cultures were incubated in micro-aerophilic conditions. The combined effect of artemisinin and omeprazole on bacterial growth was tested using a spectrophotometer after 3 days.

cancer cells = details: cited from earlier work
anaerobic bacteria = details: cited from earlier work

dihydro-epideoxyarteannuin B
Gastric cytoprotection (ulcerative lesion index) (ulcerative lesion index): provided gastric cytoprotection

CCO[C@@H]1O[C@@H]2O[C@]3(C)CC[C@H]4[C@H](C)CC[C@@H]([C@H]1C)[C@@]24OO3 [α-arteether]
Growth inhibition [1]: inhibits the growth
Sensitivity [2]: not sensitive

C[C@@H]1CC[C@H]2[C@@H](C)C(=O)O[C@@H]3O[C@@]4(C)CC[C@@H]1[C@]32O4 [deoxyartemisinin]
Gastric cytoprotection (ulcerative lesion index) (ulcerative lesion index): provided gastric cytoprotection

CCO[C@H]1O[C@@H]2O[C@@]3(C)CC[C@H]4[C@H](C)CC[C@@H]([C@H]1C)[C@@]24OO3 [arteether]
minimal inhibitory concentration (MIC) (H. pylori [3]): 0.15 to 0.3 µM

CO[C@H]1O[C@@H]2O[C@@]3(C)CC[C@H]4[C@H](C)CC[C@@H]([C@H]1C)[C@@]24OO3 [artemether]
minimal inhibitory concentration (MIC) (H. pylori [3]): 0.3 to 0.6 µM

C[C@H]1[C@H](OC(=O)CCC(=O)O)O[C@@H]2O[C@@]3(C)CC[C@H]4[C@H](C)CC[C@@H]1[C@@]24OO3 [artesunate]
Bacterial growth after wash-out of artesunate (H. pylori [4]): irreversible bacterial eradication
Anti-Helicobacter activity after pre-incubation in low pH (H. pylori [5]): preserved
Number of colony forming units from homogenized stomach [6]: efficiently reduced the number of colony forming units

C[C@@H]1CC[C@H]2[C@@H](C)C(=O)O[C@@H]3O[C@@]4(C)CC[C@@H]1[C@]32OO4 [artemisinin]
MIC (minimal inhibitory concentration) (H. pylori [3]; Example 1, Table 1): 2.5 µM (≈ 0.706 µg/mL)
MBC (minimal bactericidal concentration) (H. pylori [7]): 125 to 250 µM
MBC (minimal bactericidal concentration) (E. coli): >5000 µM
MBC (minimal bactericidal concentration) (P. acnes): >5000 µM
MIC (minimal inhibitory concentration) ([8]; L. acidophilus): >5000 µM
Effect on growth of L. acidophilus ([8]; any used concentration below 5 mg/ml): did not affect the growth
MBC (minimal bactericidal concentration) [9]: >5000 µM
Sensitivity of clarithromycin- and metronidazole-resistant H. pylori strains [10]: significant sensitivity
Bacterial growth, artemisinin alone (H. pylori [11]): not effective alone
Concentration range toxic to cancer cells in vitro (cancer cells): 20 to 180 µM
Anti-microbial activity (anaerobic bacteria): possesses an anti-microbial activity
